Data from patent US11802111B2, “Cyclobutyl amide monoacylglycerol lipase modulators” (Janssen Pharmaceutica NV, priority 2020, dated 2023).

Molecular target: human MGL from HeLa cells (Homo sapiens (Human), UniProt Q99685)
Experiment: MGL in vitro activity assay ([glycerol-1,3-3H]-oleoyl glycerol hydrolysis, activated carbon filtration)
Type: biochemical
Conditions: 300 nM [Glycerol-1,3-3H]-oleoyl glycerol, one hour
In short: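 Endogenous human MGL in HeLa cells/homogenates incubated 1 h with test compounds and 300 nM [glycerol-1,3-3H]-oleoyl glycerol. Released 3H-glycerol passing an activated carbon filter counted as activity; screening at 10 μM compound, top IC50 concentration set empirically.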

Chain of human MGL from HeLa cells (Q99685 whole entry): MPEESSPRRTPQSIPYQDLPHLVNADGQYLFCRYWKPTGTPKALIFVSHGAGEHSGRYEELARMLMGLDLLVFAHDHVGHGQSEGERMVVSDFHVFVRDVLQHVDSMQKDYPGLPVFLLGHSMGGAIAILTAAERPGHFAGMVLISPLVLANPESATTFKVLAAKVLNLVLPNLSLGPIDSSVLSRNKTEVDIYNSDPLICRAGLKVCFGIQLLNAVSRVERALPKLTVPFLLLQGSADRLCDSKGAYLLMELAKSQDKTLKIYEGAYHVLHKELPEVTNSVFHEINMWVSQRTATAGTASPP

| IC50 | SMILES |
| --- | --- |
| 0.0024 µM | Cc1cc(C2CC2)ccc1C1CCC2(C1)CN(C(=O)[C@H]1C[C@@](C)(O)C1)C2 (mixture of isomers) [Example 75, (rac)-(6-(4-Cyclopropyl-2-methylphenyl)-2-azaspiro[3.4]octan-2-yl)((1s,3s)-3-hydroxy-3-methylcyclobutyl)methanone] |
| 0.0014 µM | Cc1cc(Cl)ccc1OC1CCC2(CC1)CN(C(=O)[C@H]1C[C@@](C)(O)C1)C2 [Example 412, (7-(4-Chloro-2-methylphenoxy)-2-azaspiro[3.5]nonan-2-yl)((1s,3s)-3-hydroxy-3-methylcyclobutyl)methanone] |
| 0.026 µM | Cc1c(OC2CCC3(C2)CN(C(=O)[C@H]2C[C@@](C)(O)C2)C3)cccc1C(F)(F)F (mixture of isomers) [Example 253, (rac)-((1s,3s)-3-Hydroxy-3-methylcyclobutyl)(6-(2-methyl-3-(trifluoromethyl)phenoxy)-2-azaspiro[3.4]octan-2-yl)methanone] |
| 0.022 µM | COc1ccc(CC2CC3(C2)CN(C(=O)[C@H]2C[C@@](C)(O)C2)C3)cc1 [Example 192, ((1s,3s)-3-Hydroxy-3-methylcyclobutyl)(6-(4-methoxybenzyl)-2-azaspiro[3.3]heptan-2-yl)methanone] |
| 0.104 µM | COc1cc(C)cc(C2CCC3(C2)CN(C(=O)[C@H]2C[C@@](C)(O)C2)C3)c1 (mixture of isomers) [Example 80, (rac)-((1s,3s)-3-Hydroxy-3-methylcyclobutyl)(6-(3-methoxy-5-methylphenyl)-2-azaspiro[3.4]octan-2-yl)methanone] |
| 0.015 µM | COc1cc(OC2CCC3(CC2)CN(C(=O)[C@H]2C[C@@](C)(O)C2)C3)ccc1Cl [Example 414, (7-(4-Chloro-3-methoxyphenoxy)-2-azaspiro[3.5]nonan-2-yl)((1s,3s)-3-hydroxy-3-methylcyclobutyl)methanone] |
| 0.016 µM | COC1(c2ccccc2C)CCC2(CC1)CN(C(=O)[C@H]1C[C@@](C)(O)C1)C2 [Example 343, ((1s,3s)-3-Hydroxy-3-methylcyclobutyl)(7-methoxy-7-(o-tolyl)-2-azaspiro[3.5]nonan-2-yl)methanone] |
| 0.00044 µM | COc1cc(C(F)F)ccc1CC1CC2(C1)CN(C(=O)[C@H]1C[C@@](C)(O)C1)C2 [Example 275, (6-(4-(Difluoromethyl)-2-methoxybenzyl)-2-azaspiro[3.3]heptan-2-yl)((1s,3s)-3-hydroxy-3-methylcyclobutyl)methanone] |
| 0.167 µM | CC(C)(C)c1cc(C2CCC3(CC2)CN(C(=O)[C@H]2C[C@@](C)(O)C2)C3)ccn1 [Example 139, (7-(2-(tert-Butyl)pyridin-4-yl)-2-azaspiro[3.5]nonan-2-yl)((1s,3s)-3-hydroxy-3-methylcyclobutyl)methanone] |
| 1.27 µM | C[C@]1(O)C[C@@H](C(=O)N2CC3(CCC(c4cn5ccccc5n4)CC3)C2)C1 [Example 391] |
| 0.052 µM | Cc1nc([C@@H](C)C2CC3(C2)CN(C(=O)[C@H]2C[C@@](C)(O)C2)C3)ccc1C(F)(F)F (stereo in doubt) [Example 313, ((1s,3*R)-3-Hydroxy-3-methylcyclobutyl)(6-((*S)-1-(6-methyl-5-(trifluoromethyl)pyridin-2-yl)ethyl)-2-azaspiro[3.3]heptan-2-yl)methanone] |
| 0.143 µM | COc1cc(C)cc(OC2CCC3(CC2)CN(C(=O)[C@H]2C[C@@](C)(O)C2)C3)c1 [Example 407, ((1s,3s)-3-Hydroxy-3-methylcyclobutyl)(7-(3-methoxy-5-methylphenoxy)-2-azaspiro[3.5]nonan-2-yl)methanone] |
| 0.014 µM | CCc1cnc(OC2CCC3(CC2)CN(C(=O)[C@H]2C[C@@](C)(O)C2)C3)c(F)c1 [Example 433, (7-((5-Ethyl-3-fluoropyridin-2-yl)oxy)-2-azaspiro[3.5]nonan-2-yl)((1s,3s)-3-hydroxy-3-methylcyclobutyl)methanone] |
| 0.033 µM | Cc1nc(O[C@@H]2CCC3(C[C@H]2C)CN(C(=O)[C@H]2C[C@@](C)(O)C2)C3)ccc1C(F)(F)F (stereo in doubt) [Example 445, ((1s,3*S)-3-Hydroxy-3-methylcyclobutyl)((6*R,7*R)-6-methyl-7-((6-methyl-5-(trifluoromethyl)pyridin-2-yl)oxy)-2-azaspiro[3.5]nonan-2-yl)methanone] |
| 0.014 µM | Cc1ccc(CC2CC3(C2)CN(C(=O)[C@H]2C[C@@](C)(O)C2)C3)cc1 [Example 166, ((1s,3s)-3-Hydroxy-3-methylcyclobutyl)(6-(4-methylbenzyl)-2-azaspiro[3.3]heptan-2-yl)methanone] |
| 0.013 µM | CC(C)c1cccc(C2CCC3(C2)CN(C(=O)[C@H]2C[C@@](C)(O)C2)C3)c1 (mixture of isomers) [Example 46, (rac)-((1s,3s)-3-Hydroxy-3-methylcyclobutyl)(6-(3-isopropylphenyl)-2-azaspiro[3.4]octan-2-yl)methanone] |

The next lines start with the molecule.

| SMILES | IC50 |
| --- | --- |
| Cn1ccc2cc(C3CC4(C3)CN(C(=O)[C@H]3C[C@@](C)(O)C3)C4)cnc21 [Example 268, ((1s,3s)-3-Hydroxy-3-methylcyclobutyl)(6-(1-methyl-1H-pyrrolo[2,3-b]pyridin-5-yl)-2-azaspiro[3.3]heptan-2-yl)methanone] | 2.4 µM |
| C[C@]1(O)C[C@@H](C(=O)N2CC3(CC[C@@H](Cc4cccc(OC(F)(F)F)c4)C3)C2)C1 (racemic) [Example 180, (rac)-((1s,3s)-3-Hydroxy-3-methylcyclobutyl)(6-(3-(trifluoromethoxy)benzyl)-2-azaspiro[3.4]octan-2-yl)methanone] | 0.0083 µM |
| Cc1ccc(C2CCC3(CC2)CN(C(=O)[C@H]2C[C@@](C)(O)C2)C3)nc1C(C)C [Example 373, ((1s,3s)-3-Hydroxy-3-methylcyclobutyl)(7-(6-isopropyl-5-methylpyridin-2-yl)-2-azaspiro[3.5]nonan-2-yl)methanone] | 0.0024 µM |
| C[C@]1(O)C[C@@H](C(=O)N2CC3(CC[C@H](c4ccc(OC(F)(F)F)cc4)C3)C2)C1 (stereo in doubt) [Example 54, ((1s,3*R)-3-Hydroxy-3-methylcyclobutyl)((*S)-6-(4-(trifluoromethoxy)phenyl)-2-azaspiro[3.4]octan-2-yl)methanone] | 0.01 µM |
| CC(C)c1ccc(CC2CCC3(C2)CN(C(=O)[C@H]2C[C@@](C)(O)C2)C3)cc1 (mixture of isomers) [Example 170, (rac)-((1s,3s)-3-Hydroxy-3-methylcyclobutyl)(6-(4-isopropylbenzyl)-2-azaspiro[3.4]octan-2-yl)methanone] | 0.01 µM |
| CC(F)(F)c1cccc(C2CCC3(C2)CN(C(=O)[C@H]2C[C@@](C)(O)C2)C3)c1 (mixture of isomers) [Example 90, (rac)-(6-(3-(1,1-Difluoroethyl)phenyl)-2-azaspiro[3.4]octan-2-yl)((1s,3s)-3-hydroxy-3-methylcyclobutyl)methanone] | 0.064 µM |
| C[C@]1(O)C[C@@H](C(=O)N2CC3(CC(Cc4ccc(C(F)F)cc4)C3)C2)C1 [Example 232, (6-(4-(Difluoromethyl)benzyl)-2-azaspiro[3.3]heptan-2-yl)((1s,3s)-3-hydroxy-3-methylcyclobutyl)methanone] | 0.011 µM |
| C[C@]1(O)C[C@@H](C(=O)N2CC3(CC[C@H](c4cccc(C(F)(F)F)c4)C3)C2)C1 (stereo in doubt) [Example 63, ((1s,3*R)-3-Hydroxy-3-methylcyclobutyl)((*S)-6-(3-(trifluoromethyl)phenyl)-2-azaspiro[3.4]octan-2-yl)methanone] | 0.022 µM |
| C[C@]1(O)C[C@@H](C(=O)N2CC3(CC[C@H](c4cccc(C5CC5)c4)C3)C2)C1 (stereo in doubt) [Example 60, ((*S)-6-(3-Cyclopropylphenyl)-2-azaspiro[3.4]octan-2-yl)((1s,3*R)-3-hydroxy-3-methylcyclobutyl)methanone] | 0.025 µM |
| CC(C)n1ncc2ccc(CC3CC4(C3)CN(C(=O)[C@H]3C[C@@](C)(O)C3)C4)cc21 [Example 306, ((1s,3s)-3-Hydroxy-3-methylcyclobutyl)(6-((1-isopropyl-1H-indazol-6-yl)methyl)-2-azaspiro[3.3]heptan-2-yl)methanone] | 0.023 µM |
| C[C@]1(O)C[C@@H](C(=O)N2CC3(CCC(c4ccc5c(c4)OCC5)C3)C2)C1 (mixture of isomers) [Example 323, (rac)-(6-(2,3-Dihydrobenzofuran-6-yl)-2-azaspiro[3.4]octan-2-yl)((1s,3s)-3-hydroxy-3-methylcyclobutyl)methanone] | 0.166 µM |
| Cc1cc(C2CCC3(C2)CN(C(=O)[C@H]2C[C@@](C)(O)C2)C3)ccc1OC(F)(F)F (mixture of isomers) [Example 66, (rac)-((1s,3s)-3-Hydroxy-3-methylcyclobutyl)(6-(3-methyl-4-(trifluoromethoxy)phenyl)-2-azaspiro[3.4]octan-2-yl)methanone] | 0.0005 µM |
| Cn1ccc2cnc(CC3CC4(C3)CN(C(=O)[C@H]3C[C@@](C)(O)C3)C4)cc21 [Example 298, ((1s,3s)-3-Hydroxy-3-methylcyclobutyl)(6-((1-methyl-1H-pyrrolo[3,2-c]pyridin-6-yl)methyl)-2-azaspiro[3.3]heptan-2-yl)methanone] | 0.775 µM |
| Cc1cccc(C2CCC3(CC2)CN(C(=O)[C@H]2C[C@@](C)(O)C2)C3)c1F [Example 355, (7-(2-Fluoro-3-methylphenyl)-2-azaspiro[3.5]nonan-2-yl)((1s,3s)-3-hydroxy-3-methylcyclobutyl)methanone] | 0.039 µM |
| C[C@]1(O)C[C@@H](C(=O)N2CC3(CCC(c4ccn5nccc5c4)C3)C2)C1 (mixture of isomers) [Example 97, (rac)-((1s,3s)-3-Hydroxy-3-methylcyclobutyl)(6-(pyrazolo[1,5-a]pyridin-5-yl)-2-azaspiro[3.4]octan-2-yl)methanone] | 0.654 µM |
| C[C@]1(O)C[C@@H](C(=O)N2CC3(CCC(c4ncn5c4CCCC5)C3)C2)C1 (mixture of isomers) [Example 330, (rac)-((1s,3s)-3-Hydroxy-3-methylcyclobutyl)(6-(5,6,7,8-tetrahydroimidazo[1,5-a]pyridin-1-yl)-2-azaspiro[3.4]octan-2-yl)methanone] | 2.38 µM |
